The text below walks through data of patent publication US20240252677A1, “ONE-COMPONENT DELIVERY SYSTEM FOR NUCLEIC ACIDS” (The Trustees of the University of Pennsylvania, priority 2021, published 2024).

Series [1] deals with BALB/c mice. The note with it: cited from earlier work.
The subject of series [2] is spleen. As to the kind of experiment: In vivo mRNA delivery, IVIS imaging of organs: spleen. Also on record: species or system mice; key to Organs with luminescence: spleen: strong: Strong meant the luminescence intensity in that organ was relatively high, compared to other organs; weak: Weak meant the luminescence intensity in that organ was relatively low, compared to other organs. As to conditions: for Organs with luminescence: spleen (weak/strong): Table 14, imaging 5 h after injection; for Organs with luminescence: spleen: Table 17, mice, IVIS, 4-6 h after injection, intensity relative to other organs.

Series [3] relates to liver. As to the kind of experiment: In vivo mRNA delivery, IVIS imaging of organs: liver. Also on record: species or system mice; key to Organs with luminescence: liver: strong: Strong meant the luminescence intensity in that organ was relatively high, compared to other organs; weak: Weak meant the luminescence intensity in that organ was relatively low, compared to other organs. The note with it: for Organs with luminescence: liver (weak/strong): Table 14, imaging 5 h after injection; for Organs with luminescence: liver: Table 17, mice, IVIS, 4-6 h after injection, intensity relative to other organs.

Series [4] in a line: Dimensions (size, PDI) of DNPs co-assembled from IAJDs and Luc-mRNA by DLS. In kind it is physicochemical. An outline of the steps:
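IAJDs (80 mg/mL ethanol stock) rapidly injected into Luc-mRNA (4.0 mg/mL stock) diluted in 10 mM acetate buffer pH 4.0, then vortexed 5 s. Size and polydispersity of resulting DNPs measured by DLS (633 nm laser, 175° detection) at 23 °C.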

A short description of series [5]: pKa measurements of individual IAJD molecules by titration. It is filed as physicochemical. The note with it: ethanol saturated with NaCl, titrated with 0.1 M aqueous HCl, titration. In short, it runs like this: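 Compound dissolved at 1.5 mg/mL in NaCl-saturated ethanol and titrated with 0.1 M HCl in 7.5 μL steps, pH read by electrode after each addition. pKa taken from the half-equivalence point.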

Series [6] is described as follows: Stability of DNPs by DLS after storage at 5° C. In kind it is physicochemical. On the set-up: key to Original size distribution type (DLS curve) / Size distribution type (DLS curve): U: DLS curve showed unimodal size distribution; B: DLS curve showed bimodal size distribution; M: DLS curve showed multimodal size distribution. As to conditions: for pH Sample: DNPs: IAJD 4.0 mg/mL + Luc-mRNA 0.1 mg/mL, injection in acetate buffer pH 4.00; for PDI / Size (d, nm) / Original size distribution type (DLS curve): IAJD 4.0 mg/mL + Luc-mRNA 0.1 mg/mL; for PDI / Size (d, nm): acetate buffer; for Original size distribution type (DLS curve): before storage, acetate buffer pH 4.00. An outline of the steps:
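DNPs in acetate buffer sized by DLS after storage at 5 °C. Stability ranked Excellent, Good or Not stable according to retention, shrinkage or growth of original size and narrowing or broadening of size distribution.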

Where [7] appears, read: Table 18, symmetric IAJDs, results available in the literature.
Setting [8] is: Table 20, corresponding symmetric IAJDs (literature per Table 18).
The mark [9] stands for this setting: Table 12, DNPs, IAJD 4 mg/mL + Luc-mRNA 0.10 mg/mL, acetate buffer 10 mM pH 4.0.
The mark [10] stands for this setting: Table 13, DNPs, IAJD 4 mg/mL + Luc-mRNA 0.10 mg/mL, acetate buffer pH 4.0.
The mark [11] stands for this setting: Table 14, DNPs, IAJD 4 mg/mL + Luc-mRNA 0.10 mg/mL, acetate buffer pH 4.0.
Setting [12] is: Table 15, individual IAJD molecule.
Where [13] appears, read: Table 16, DNPs from IAJD 4 mg/mL and Luc-mRNA 0.10 mg/mL by injection in acetate buffer (10 mM, pH 4.0).
[14] abbreviates: Table 17, DNPs used in vivo, IAJD 4 mg/mL, Luc-mRNA 0.10 mg/mL, acetate pH 4.0.

Read-outs that look alike come from different tables or passages of the source.

Take `CCCCCCCCCCCCCCOc1cc(COC(=O)CCCN2CCN(C)CC2)cc(OCCCCCCCCCCCCCC)c1` [IAJD 74, 3,5-Bis(tetradecyloxy)benzyl 4-(4-methylpiperazin-1-yl)butanoate]: the “In vivo activity (total flux, p/s)” value in series [1] (setting [7]) and in series [1] (setting [8]) was 1.71 × 10^7 p/s in each case. Moreover, the “Organs with luminescence: spleen (weak/strong)” value (from here on “Organs … spleen (weak/strong)”) in series [2] is “spleen (strong)”. Further, the “Organs with luminescence: liver (weak/strong)” value (“Organs … liver (weak/strong)” below) in series [3] is recorded as “liver (weak),”. Moreover, the PDI in series [4] (setting [9]), in series [4] (setting [10]) and in series [4] (setting [11]) was 0.317 throughout. The “Size (d, nm)” value in series [4] (setting [9]), in series [4] (setting [10]) and in series [4] (setting [11]) was 180 nm in each case. This molecule yielded a pKa in series [5] (setting [12]) of 6.32.
For the molecule `CCCCCCCCCCCCCCCCOc1cc(COC(=O)CCCN2CCN(C)CC2)cc(OCCCCCCCCCCCCCCCC)c1` [IAJD 75, 3,5-Bis(hexadecyloxy)benzyl 4-(4-methylpiperazin-1-yl)butanoate], the “In vivo activity (total flux, p/s)” value in series [1] (setting [7]) and in series [1] (setting [8]) was 3.37 × 10^7 p/s each time. Further, the “Organs … spleen (weak/strong)” value in series [2] is “spleen (strong)”. Also, in series [3], the “Organs … liver (weak/strong)” value is “liver (weak),”. Moreover, the PDI in series [4] (setting [9]), in series [4] (setting [10]) and in series [4] (setting [11]) was 0.328 each time. Besides, the “Size (d, nm)” value in series [4] (setting [9]), in series [4] (setting [10]) and in series [4] (setting [11]) was 235 nm in each case. In series [5] (setting [12]), the pKa was found to be 6.22.
For the molecule `CCCCC(CC)COc1cc(COC(=O)CCCN2CCN(C)CC2)cc(OCC(CC)CCCC)c1` (centres unmarked) [IAJD 76, 3,5-Bis((2-ethylhexyl)oxy)benzyl 4-(4-methylpiperazin-1-yl)butanoate], in series [1] (setting [7]), the “In vivo activity (total flux, p/s)” value is recorded as 7.81 × 10^7 p/s. Also, the “Organs … spleen (weak/strong)” value in series [2] is reported as “spleen (strong)”. In series [3], the “Organs … liver (weak/strong)” value is recorded as “liver (weak),”. Moreover, the PDI in series [4] (setting [9]), in series [4] (setting [10]) and in series [4] (setting [11]) was 0.287 in each case. For the same molecule, the “Size (d, nm)” value in series [4] (setting [9]), in series [4] (setting [10]) and in series [4] (setting [11]) was 78 nm in each case. Besides, in series [5] (setting [12]), the pKa was 6.28.
Regarding `CCCCCCCCCCCCCOc1cc(COC(=O)CCCN2CCN(CCO)CC2)cc(OCC(CC)CCCC)c1` (centres unmarked) [IAJD 162, 3-((2-Ethylhexyl)oxy)-5-(tridecyloxy)benzyl 4-(4-(2-hydroxyethyl)piperazin-1-yl)butanoate], in series [2], the “Organs with luminescence: spleen” value is on record as “spleen (strong)”. The “Organs with luminescence: liver” value in series [3] is given as “liver (weak),”. In addition, in series [4] (setting [13]), the PDI was 0.301 and the “Size (d, nm)” value is recorded as 191 nm. In addition, in series [4] (setting [14]), the PDI stood at 0.301 and the “Size (d, nm)” value was determined as 191 nm. In series [5] (individual IAJD molecules), this molecule had a pKa of 6.33. In series [6], the “pH Sample” value is recorded as 4.66 and the “Original size distribution type (DLS curve)” value is “(B)”. In series [6] (after 21 days at 5° C.), the “Size distribution type (DLS curve)” value is reported as “(B)”; the PDI was found to be 0.291; the “Size (d, nm)” value is on record as 182 nm.
In the case of `CCCCCCCCCCCCCCOc1cc(COC(=O)CCCN2CCN(C)CC2)cc(OCCCCCCCCCCCCC)c1` [IAJD 171, 3-(Tetradecyloxy)-5-(tridecyloxy)benzyl 4-(4-methylpiperazin-1-yl)butanoate], in series [2], the “Organs with luminescence: spleen” value was “spleen (strong)”. Besides, the “Organs with luminescence: liver” value in series [3] is reported as “liver (strong),”. Further, in series [4] (setting [13]), the PDI was 0.268 and the “Size (d, nm)” value was 174 nm. Further, in series [4] (setting [14]), the PDI is listed as 0.268 and the “Size (d, nm)” value is 174 nm. The same molecule returned a pKa in series [5] (individual IAJD molecules) of 6.16. Moreover, in series [6], the “pH Sample” value was 4.88 and the “Original size distribution type (DLS curve)” value is “(U)”. In series [6] (after 21 days at 5° C.), the “Size distribution type (DLS curve)” value is given as “(U)”; the PDI turned out to be 0.277; the “Size (d, nm)” value worked out at 175 nm.
As to `CCCCCCCCCCCCCCOc1cc(COC(=O)CCCN2CCN(CCO)CC2)cc(OCCCCCCCCCCCCC)c1` [IAJD 172, 3-(Tetradecyloxy)-5-(tridecyloxy)benzyl 4-(4-(2-hydroxyethyl)piperazin-1-yl)butanoate], in series [2], the “Organs with luminescence: spleen” value is given as “spleen (strong)”. For the same molecule, the “Organs with luminescence: liver” value in series [3] is on record as “liver (weak),”. Moreover, in series [4] (setting [13]), the PDI turned out to be 0.203 and the “Size (d, nm)” value amounted to 235 nm. Besides, in series [4] (setting [14]), the PDI is recorded as 0.203 and the “Size (d, nm)” value was found to be 235 nm. This molecule also had a pKa in series [5] (individual IAJD molecules) of 6.03. For the same molecule, in series [6], the “pH Sample” value was found to be 4.84 and the “Original size distribution type (DLS curve)” value is reported as “(U)”. In addition, in series [6] (after 14 days at 5° C.), the “Size distribution type (DLS curve)” value is given as “(U)”; the PDI is reported as 0.219; the “Size (d, nm)” value came out at 225 nm.
Turning to `CCCCCCCCCCCCCCCCOc1cc(COC(=O)CCCN2CCN(C)CC2)cc(OCCCCCCCCCCCCC)c1` [IAJD 173, 3-(Hexadecyloxy)-5-(tridecyloxy)benzyl 4-(4-methylpiperazin-1-yl)butanoate], in series [2], the “Organs with luminescence: spleen” value is recorded as “spleen (weak)”. The “Organs with luminescence: liver” value in series [3] is recorded as “liver (strong),”. In series [4] (setting [13]), the PDI is 0.301 and the “Size (d, nm)” value is 139 nm. Besides, in series [4] (setting [14]), the PDI was determined as 0.301 and the “Size (d, nm)” value is recorded as 139 nm. For the same molecule, the pKa in series [5] (individual IAJD molecules) was 5.91. Moreover, in series [6], the “pH Sample” value is given as 4.79 and the “Original size distribution type (DLS curve)” value is reported as “(U)”. In series [6] (after 21 days at 5° C.), the “Size distribution type (DLS curve)” value is listed as “(B)”; the PDI turned out to be 0.376; the “Size (d, nm)” value stood at 132 nm.
Regarding `CCCCCCCCCCCCCCCCCCOc1cc(COC(=O)CCCN2CCN(C)CC2)cc(OCCCCCCCCCCCCC)c1` [IAJD 177, 3-(Octadecyloxy)-5-(tridecyloxy)benzyl 4-(4-methylpiperazin-1-yl)butanoate], in series [2], the “Organs with luminescence: spleen” value is reported as “spleen (strong)”. Also, the “Organs with luminescence: liver” value in series [3] is on record as “liver (strong),”. Also, in series [4] (setting [13]), the PDI came to 0.275 and the “Size (d, nm)” value was found to be 159 nm. Moreover, in series [4] (setting [14]), the PDI is reported as 0.275 and the “Size (d, nm)” value worked out at 159 nm. The same molecule returned a pKa in series [5] (individual IAJD molecules) of 5.9. In series [6], the “pH Sample” value turned out to be 4.76 and the “Original size distribution type (DLS curve)” value is on record as “(B)”. Also, in series [6] (after 21 days at 5° C.), the “Size distribution type (DLS curve)” value is recorded as “(B)”; the PDI was determined as 0.218; the “Size (d, nm)” value is recorded as 153 nm.
Consider `CCCCCCCCCCCCCCCCCCOc1cc(COC(=O)CCCN2CCN(CCO)CC2)cc(OCCCCCCCCCCCCC)c1` [IAJD 178, 3-(Octadecyloxy)-5-(tridecyloxy)benzyl 4-(4-(2-hydroxyethyl)piperazin-1-yl)butanoate], for which, in series [2], the “Organs with luminescence: spleen” value is reported as “spleen (strong)”. The “Organs with luminescence: liver” value in series [3] is “liver (weak),”. Further, in series [4] (setting [13]), the PDI was found to be 0.223 and the “Size (d, nm)” value came to 344 nm. Further, in series [4] (setting [14]), the PDI is 0.223 and the “Size (d, nm)” value stood at 344 nm. This molecule also came in with a pKa in series [5] (individual IAJD molecules) of 5.97. For the same molecule, in series [6], the “pH Sample” value is 4.58 and the “Original size distribution type (DLS curve)” value was “(U)”. Further, in series [6] (after 21 days at 5° C.), the “Size distribution type (DLS curve)” value is “(U)”; the PDI came to 0.261; the “Size (d, nm)” value stood at 261 nm.

What is called pKa is the negative logarithm of the acid dissociation constant.
